Usually inhibition stands for the drop in the measured response relative to a control, in per cent. A word on the IC50: it is the point on the concentration scale where inhibition reaches its midpoint.

Data on eight molecules can be found in patent publication US11452709B2, “Compositions and methods for preventing and treating radiation-induced bystander effects caused by radiation or radiotherapy” (The Regents of the University of Colorado, priority 2017, dated 2022).

Residue numbers refer to the chain shown, from its start. Names may count otherwise. Where two headings read alike, the source gives them in different places.

The target of one data set is T1, CTSB protease (Homo sapiens, UniProt P07858).
T1 construct: purchased Sino Biological Inc. 10483-H08H-10
The data set can be described thus: CTSB protease activity inhibition in vitro (z-Arg-Arg-AMC substrate). The note with it: for Inhibition rate (%) of the CTSB protease activity / inhibition at 1000 µM: 1 mM of each compound; for inhibition at 1000 µM: read-out: Inhibition rate (%) of the CTSB protease activity. The data set is classed as biochemical.

Data set [1] relates to Phsp-4::gfp stress-response reporter. The data set can be described thus: Phsp-4::gfp stress response assay in unexposed posterior region after localized UV irradiation (LUI). The data set is classed as in vivo, C. elegans. The conditions noted are these: zcls4 L1 larvae treated with 1 mM compound for 48 h (FIG. 17).
The target in data set [2] is T2, C. elegans CPR-4 protease (Caenorhabditis elegans, UniProt P43508).
T2 construct: a cpr-4 cDNA fragment encoding residues 16-336 was PCR amplified from the full-length cpr-4 cDNA clone; GST (N, cleaved yes); made in house; host or cells: Escherichia coli BL21(DE3)
T2 sequence (P43508 81-335): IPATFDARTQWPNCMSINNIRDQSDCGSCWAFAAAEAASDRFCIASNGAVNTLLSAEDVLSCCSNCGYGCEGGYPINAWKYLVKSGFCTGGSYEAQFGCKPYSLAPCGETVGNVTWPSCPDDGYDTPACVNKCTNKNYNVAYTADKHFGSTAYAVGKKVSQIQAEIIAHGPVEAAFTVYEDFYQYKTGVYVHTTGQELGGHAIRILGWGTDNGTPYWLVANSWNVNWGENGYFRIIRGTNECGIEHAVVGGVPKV
The data set can be described thus: CPR-4 protease activity inhibition in vitro (z-Arg-Arg-AMC substrate). Type of data set: biochemical. The note with it: 1 mM of each compound; read-out: Inhibition rate(%) of the C. elegans CPR-4 protease activity.

The nature of data set [3]: Protease activity of recombinant proteins in vitro. The data set is classed as biochemical. The note with it: 2.8 μM tCPR-4 proteins, 0.27 μM rhCTSB; z-Arg-Arg-AMC. How it is done:
Measurement of protease activity in vitro. The CPR-4 enzymatic assays were performed following the method described previously with some modifications. The cathepsin B-specific fluorogenic substrate, Z-Arg-Arg-7-amido-4-methylcoumarin hydrochloride (z-Arg-Arg-AMC; Peptanova, catalog number 88937-61-5), was dissolved in 2×reaction buffer, containing 25 mM Tris-HCl (pH 8.0), 100 mM NaCl, 10% (v/v) Glycerol, 0.8 mM Sodium Acetate (pH6.0), and 8 mM EDTA. For the assays, 10 μL of proteins (100 ng/μL) or 10 μL of conditioned medium (100 ng/μL) were incubated with 10 μL of 20 μM z-Arg-Arg-AMC at 25° C. for 10 minutes before measuring the […]. Enzymatic activities were determined as the mean velocities at 25° C. in a dual luminescence fluorometer EnVision (Perkin-Elmer) at an excitation wavelength of 380 nm and an emission wavelength of 460 nm, and expressed as relative intensity in kilo relative fluorescence unit (kRFU). Recombinant human cathepsin B (rhCTSB; Sino Biological Inc., catalog number 10483-H08H-10) was dissolved in a buffer recommended by the manufacturer [25 mM Tris-HCl (pH 8.0), 100 mM NaCl, 10% (v/v) glycerol, 5 mM DTT, and 0.1% Triton-X]. The buffer control unique to the CPR-4 proteins or the rhCTSB protein, or the sham-irradiated conditioned medium, was also measured using the same procedures. S-Medium was used in each experiment as the background control.

Data set [4] concerns germ cell corpses in ced-1(e1735) animals. Briefly: Germ cell corpse assay with recombinant proteins in liquid culture. The data set is classed as in vivo, C. elegans. The conditions noted are these: 2.8 μM tCPR-4 proteins or 0.27 μM rhCTSB, L4 larvae, 48 hours. How it is done:
Growing C. elegans animals in 96-well plates. HB101 bacteria were mixed with 100 μL conditioned medium (0.1 μg/μL) or 100 μL S-Medium containing 2.8 μM of recombinant tCPR-4 proteins (wild-type or mutant) or 0.27 μM recombinant human cathepsin B in a 96-well plate. Approximately 60 L4 larvae were transferred into each well of the plate. After being cultured in liquid media for 48 hours, these animals were scored for the numbers of germ cell corpses and mitotic nuclei. Quantification of germ cell corpses. L4 animals were cultured in liquid media in a 96-well plate as described above. After 48 hours, they were transferred to NGM plates and allowed to recover for 1 hour at 20° C. The animals were then anesthetized by 20 mM NaN3, mounted onto 2% agar pad, and scored under Nomarski optics. For transgenic animals expressing CPR-4 in the pharynx, L4 animals were grown on NGM plates for 24 hours at 20° C. before they were scored for germ cell corpses. Only the posterior arms of intact gonads were scored. Blind tests were carried out in all germ cell corpse quantification experiments.

For the next data set, the system named is N2 animals. Briefly: Embryonic lethality assay in liquid media with purified proteins. The conditions noted are these: 2.8 μM tCPR-4 proteins or 0.27 μM rhCTSB, 48 hours. The data set is classed as in vivo, C. elegans. How it is done: Embryonic lethality and larval arrest assays. For embryonic lethality assays caused by direct irradiation, after irradiated with 100 J/m^2 UV or 500 Gy gamma ray, gravid adults were placed on NGM plates to lay eggs for 4 hours at 25° C. and then removed from the plates. For embryonic lethality assays in liquid media, L4 larvae were cultured in conditioned medium or S-Medium containing the purified proteins at 20° C. for 48 hours, transferred to fresh NGM plates from the liquid media, and allowed to lay eggs for 4 hours at 25° C., before the adult animals were removed. For embryonic lethality assays in transgenic animals expressing CPR-4 in the pharynx, transgenic gravid adults at 24 hours post L4 were placed on NGM plates to lay eggs for 4 hours at 25° C. and then removed from the plates.

Where [5] appears, read: read-out: IC50 in inhibiting the CTSB protease activity.
Setting [6] is: read-out: IC50 in inhibiting CTSB.

With `CCCNC(=O)[C@H]1O[C@@H]1C(=O)N[C@H](C(=O)N1CCC[C@H]1C(=O)O)[C@@H](C)CC` (relative stereo) [CA074, N-(1-3-trans-propylcarbamoyloxirane-2-carbonyl)-1-isoleucyl-1-proline, reference compound], at CTSB protease, the “Inhibition rate (%) of the CTSB protease activity” value (“Inhibition rate (%)” below) is reported as “best inhibitory effects” and the inhibition at 1000 µM amounted to 91.8%. The “Bystander Phsp-4::gfp response in posterior unexposed regions after LUI at the head” value in data set [1] is “abolished the bystander Phsp-4::gfp response”.

As for `O=c1cc(-c2ccccc2)oc2cc(O)c(O)c(O)c12` [Baicalein, 5,6,7-Trihydroxy-2-phenyl-chromen-4-one], the inhibition at 1000 µM is 65 to 85% at CTSB protease and 41.5% in data set [2]. At CTSB protease (setting [5]), the IC50 was found to be 870 nM.

`CCCNC(=O)[C@H]1O[C@@H]1C(=O)N[C@H](C(=O)N1CCC[C@H]1C(=O)OC)[C@@H](C)CC` [CA074Me, CA074 methyl ester, reference compound]: at CTSB protease, the “Inhibition rate (%)” value is given as “best inhibitory effects” and the inhibition at 1000 µM is 88.1%. Besides, the IC50 at CTSB protease (setting [6]) is no more than 20 nM. In addition, the half-maximal inhibitory concentration (IC50) at CTSB protease (setting [5]) was less than 10 nM. Moreover, in data set [1], the “Bystander Phsp-4::gfp response in posterior unexposed regions after LUI at the head” value is reported as “abolished the bystander Phsp-4::gfp response”.

Turning to `CC(C)C[C@H](NC(=O)[C@@H]1O[C@H]1C(=O)O)C(=O)NCCCCNC(=N)N` [E64, N—[N-(L-3-Trans-carboxirane-2-carbonyl)-L-leucyl]-agmatine, reference compound], the inhibition at 1000 µM on CTSB protease came to 92.1%; in data set [2], 89.6%. Further, the concentration for half-maximal inhibition (IC50) at CTSB protease (setting [6]) is no more than 20 nM; at CTSB protease (setting [5]), 20 nM.

As for `O=c1c(O)c(-c2ccc(O)c(O)c2)oc2cc(O)cc(O)c12` [Quercetin, 2-(3,4-dihydroxyphenyl)-3,5,7-trihydroxy-4H-chromen-4-one], at CTSB protease, the “Inhibition of the activity of CTSB (in words)” value is recorded as “inhibit the activity of CTSB”, the “Inhibition rate (%)” value is reported as 82.42% and the inhibition at 1000 µM lay in the range of 65 to 85%. Further, the 50% inhibitory concentration (IC50) at CTSB protease (setting [5]) worked out at 1870 nM. Besides, in data set [2], the inhibition at 1000 µM was 80.7%.

B1: tCPR-4(N301A): tCPR-4 with mutation N301A changing a non-catalytic residue (protein, UniProt P43508 81-335, looked up, variant N301A)
Cathepsin B-like cysteine …: T2 sequence (P43508 81-335) with N221A
Consider B1, for which the “Protease activity of recombinant protein” value in data set [3] is reported as “did not affect tCPR-4 protease activity”. Besides, the “Germ cell corpses in ced-1(e1735) animals” value (shortened to “Germ cell corpses”) in data set [4] is given as “reduced germ cell corpses”. Besides, the “Embryonic lethality of treated N2 animals” value (shortened to “Embryonic lethality”) in the data set with N2 animals is recorded as “increased embryonic lethality”.

B2: tCPR-4(H281A) (protein, UniProt P43508 81-335, looked up, variant H281A)
Cathepsin B-like cysteine …: T2 sequence (P43508 81-335) with H201A
For B2, the “Protease activity of recombinant protein” value in data set [3] is given as “abolished the protease activity”. In addition, in data set [4], the “Germ cell corpses” value was “failed to do so”. In addition, in the data set on N2 animals, the “Embryonic lethality” value is recorded as “failed to do so”.

B3: tCPR-4(C109A): tCPR-4 with mutation of the conserved catalytic Cysteine residue (protein, UniProt P43508 81-335, looked up, variant C109A)
Cathepsin B-like cysteine …: T2 sequence (P43508 81-335) with C29A
As to B3, the “Protease activity of recombinant protein” value in data set [3] was “abolished the protease activity”. The “Germ cell corpses” value in data set [4] is “failed to do so”. For the same molecule, in the data set with N2 animals, the “Embryonic lethality” value is recorded as “failed to do so”.
